# From US11987586B1 (TAKEDA PHARMACEUTICAL COMPANY LIMITED, priority 2022, dated 2024)
# Target: T1, human OX2 receptor (Homo sapiens, UniProt O43614)
# T1 construct: expressed in transfected cells
# T1 sequence (O43614 1-444): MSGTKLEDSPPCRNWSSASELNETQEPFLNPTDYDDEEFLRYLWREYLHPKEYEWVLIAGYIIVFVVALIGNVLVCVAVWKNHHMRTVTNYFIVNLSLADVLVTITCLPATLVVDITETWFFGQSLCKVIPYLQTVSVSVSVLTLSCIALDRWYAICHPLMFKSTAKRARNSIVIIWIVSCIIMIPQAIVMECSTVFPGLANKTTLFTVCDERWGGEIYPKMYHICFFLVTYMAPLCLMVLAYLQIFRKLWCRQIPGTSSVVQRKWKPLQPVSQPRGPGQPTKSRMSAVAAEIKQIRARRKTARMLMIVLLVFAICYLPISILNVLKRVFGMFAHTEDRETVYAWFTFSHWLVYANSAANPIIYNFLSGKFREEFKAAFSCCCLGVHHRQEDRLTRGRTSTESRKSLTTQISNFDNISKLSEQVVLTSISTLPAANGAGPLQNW
# Test: Measurement of orexin type 2 receptor agonist activity (calcium fluorescence, Fluo-4, FDSS)
# Assay type: cell-based
# Details: 3 uM test compound; CHO cells expressing human OX2 receptor; DMSO = 0%, 10 nM orexin A (human) = 100%
# In short: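 Agonist activity (%) was normalised to the response to 10 nM final human orexin A (100%) and to the DMSO vehicle (0%). The response was measured as the Fluo-4 calcium signal, read kinetically over 1 min 40 s after compound addition to Fluo-4/probenecid-loaded stable CHO-K1 clones expressing human OX2 (aa 1-444).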
row,"OX2R agonist activity (3 uM, %)",SMILES
1,104%,"CCS(=O)(=O)N[C@@H]1Cn2c(cn(-c3noc4cc(Cl)c(F)c(-c5c(F)cccc5F)c34)c2=O)C1(F)F [Example 78, N-{(6R)-2-[6-chloro-4-(2,6-difluorophenyl)-5-fluoro-1,2-benzoxazol-3-yl]-7,7-difluoro-3-oxo-2,5,6,7-tetrahydro-3H-pyrrolo[1,2-c]imidazol-6-yl}ethanesulfonamide]"
2,99%,"CCS(=O)(=O)N[C@@H]1CN2C(=O)N(c3noc4cc(Cl)c(F)c(-c5c(F)cccc5F)c34)C[C@@H]2C1(F)F [Example 79, N-{(6R,7aR)-2-[6-chloro-4-(2,6-difluorophenyl)-5-fluoro-1,2-benzoxazol-3-yl]-7,7-difluoro-3-oxohexahydro-1H-pyrrolo[1,2-c]imidazol-6-yl}ethanesulfonamide]"
3,84%,"CCS(=O)(=O)N[C@H]1C[C@H]2CN(c3noc4cccc(-c5sccc5C)c34)C(=O)N2C1 [Example 83, N-{(6S,7aS)-2-[4-(3-methylthiophen-2-yl)-1,2-benzoxazol-3-yl]-3-oxohexahydro-1H-pyrrolo[1,2-c]imidazol-6-yl}ethanesulfonamide]"
4,92%,"CCS(=O)(=O)N[C@H]1Cc2cn(-c3noc4cc(C(F)(F)F)cc(-c5c(F)cccc5F)c34)c(=O)n2C1 [Example 84, N-{(6S)-2-[4-(2,6-difluorophenyl)-6-(trifluoromethyl)-1,2-benzoxazol-3-yl]-3-oxo-2,5,6,7-tetrahydro-3H-pyrrolo[1,2-c]imidazol-6-yl}ethanesulfonamide]"
5,95%,"CCS(=O)(=O)N[C@H]1Cc2cn(-c3c(C)nn4cccc(-c5c(F)cccc5F)c34)c(=O)n2C1 [Example 85, N-{(6S)-2-[4-(2,6-difluorophenyl)-2-methylpyrazolo[1,5-a]pyridin-3-yl]-3-oxo-2,5,6,7-tetrahydro-3H-pyrrolo[1,2-c]imidazol-6-yl}ethanesulfonamide]"
6,103%,"CCS(=O)(=O)N[C@H]1Cc2c(C)n(-c3noc4cc(C(F)(F)F)cc(-c5c(F)cccc5F)c34)c(=O)n2C1 [Example 86, N-{(6S)-2-[4-(2,6-difluorophenyl)-6-(trifluoromethyl)-1,2-benzoxazol-3-yl]-1-methyl-3-oxo-2,5,6,7-tetrahydro-3H-pyrrolo[1,2-c]imidazol-6-yl}ethanesulfonamide]"
7,91%,"CS(=O)(=O)N[C@@H]1CN2C(=O)N(c3noc4cc(Cl)cc(-c5c(F)cccc5F)c34)C[C@@H]2C1(F)F [Example 87, N-{(6R,7aR)-2-[6-chloro-4-(2,6-difluorophenyl)-1,2-benzoxazol-3-yl]-7,7-difluoro-3-oxohexahydro-1H-pyrrolo[1,2-c]imidazol-6-yl}methanesulfonamide]"
8,79%,"Cn1nc2cccc(-c3c(F)cccc3F)c2c1-n1cc2n(c1=O)C[C@@H](NS(C)(=O)=O)C2 [Example 88, N-{(6S)-2-[4-(2,6-difluorophenyl)-2-methyl-2H-indazol-3-yl]-3-oxo-2,5,6,7-tetrahydro-3H-pyrrolo[1,2-c]imidazol-6-yl}methanesulfonamide]"
9,95%,"O=C1N(c2noc3cccc(-c4c(F)cccc4F)c23)C[C@H]2N1C[C@@H](NS(=O)(=O)C1CC1)C2(F)F [Example 89, N-{(6R,7aR)-2-[4-(2,6-difluorophenyl)-1,2-benzoxazol-3-yl]-7,7-difluoro-3-oxohexahydro-1H-pyrrolo[1,2-c]imidazol-6-yl}cyclopropanesulfonamide]"
10,107%,"CS(=O)(=O)N[C@@H]1Cn2c(cn(-c3noc4cc(Cl)cc(-c5c(F)cc(F)cc5F)c34)c2=O)C1(F)F [Example 90, N-{(6R)-2-[6-chloro-4-(2,4,6-trifluorophenyl)-1,2-benzoxazol-3-yl]-7,7-difluoro-3-oxo-2,5,6,7-tetrahydro-3H-pyrrolo[1,2-c]imidazol-6-yl}methanesulfonamide]"
11,103%,"CCS(=O)(=O)N[C@@H]1Cn2c(cn(-c3noc4cccc(-c5c(F)cc(F)cc5F)c34)c2=O)C1(F)F [Example 91, N-{(6R)-7,7-difluoro-3-oxo-2-[4-(2,4,6-trifluorophenyl)-1,2-benzoxazol-3-yl]-2,5,6,7-tetrahydro-3H-pyrrolo[1,2-c]imidazol-6-yl}ethanesulfonamide]"
12,98%,"CCS(=O)(=O)N[C@@H]1Cn2c(cn(-c3noc4ccc(F)c(-c5c(F)cc(F)cc5F)c34)c2=O)C1(F)F [Example 92, N-{(6R)-7,7-Difluoro-2-[5-fluoro-4-(2,4,6-trifluorophenyl)-1,2-benzoxazol-3-yl]-3-oxo-2,5,6,7-tetrahydro-3H-pyrrolo[1,2-c]imidazol-6-yl}ethanesulfonamide]"
13,99%,"CCS(=O)(=O)N[C@@H]1CN2C(=O)N(c3noc4cc(Cl)c(F)c(-c5c(F)cc(F)cc5F)c34)C[C@@H]2C1(F)F [Example 93, N-{(6R,7aR)-2-[6-chloro-5-fluoro-4-(2,4,6-trifluorophenyl)-1,2-benzoxazol-3-yl]-7,7-difluoro-3-oxohexahydro-1H-pyrrolo[1,2-c]imidazol-6-yl}ethanesulfonamide]"
14,106%,"CCS(=O)(=O)N[C@@H]1Cn2c(cn(-c3noc4cc(Cl)c(F)c(-c5c(F)cc(F)cc5F)c34)c2=O)C1(F)F [Example 94, N-{(6R)-2-[6-chloro-5-fluoro-4-(2,4,6-trifluorophenyl)-1,2-benzoxazol-3-yl]-7,7-difluoro-3-oxo-2,5,6,7-tetrahydro-3H-pyrrolo[1,2-c]imidazol-6-yl}ethanesulfonamide]"
15,104%,"CS(=O)(=O)N[C@@H]1Cn2c(cn(-c3noc4cc(Cl)c(F)c(-c5c(F)cccc5F)c34)c2=O)C1(F)F [Example 95, N-{(6R)-2-[6-chloro-4-(2,6-difluorophenyl)-5-fluoro-1,2-benzoxazol-3-yl]-7,7-difluoro-3-oxo-2,5,6,7-tetrahydro-3H-pyrrolo[1,2-c]imidazol-6-yl}methanesulfonamide]"
16,100%,"CS(=O)(=O)N[C@@H]1Cn2c(cn(-c3noc4cccc(-c5c(F)cccc5F)c34)c2=O)C1(F)F [Example 102, N-{(6R)-2-[4-(2,6-Difluorophenyl)-1,2-benzoxazol-3-yl]-7,7-difluoro-3-oxo-2,5,6,7-tetrahydro-3H-pyrrolo[1,2-c]imidazol-6-yl}methanesulfonamide]"
17,106%,"Cn1nc(-n2cc3n(c2=O)C[C@@H](NS(C)(=O)=O)C3)c2c(-c3c(F)cccc3F)cccc21 [Example 103, N-{(6S)-2-[4-(2,6-difluorophenyl)-1-methyl-1H-indazol-3-yl]-3-oxo-2,5,6,7-tetrahydro-3H-pyrrolo[1,2-c]imidazol-6-yl}methanesulfonamide]"
18,96%,"CCS(=O)(=O)N[C@@H]1CN2C(=O)N(c3noc4ccc(F)c(-c5c(F)cc(F)cc5F)c34)C[C@@H]2C1(F)F [Example 105, N-{(6R,7aR)-7,7-difluoro-2-[5-fluoro-4-(2,4,6-trifluorophenyl)-1,2-benzoxazol-3-yl]-3-oxohexahydro-1H-pyrrolo[1,2-c]imidazol-6-yl}ethanesulfonamide]"
19,103%,"CS(=O)(=O)N[C@@H]1Cn2c(cn(-c3noc4cc(Cl)c(F)c(-c5c(F)cc(F)cc5F)c34)c2=O)C1(F)F [Example 106, N-{(6R)-2-[6-chloro-5-fluoro-4-(2,4,6-trifluorophenyl)-1,2-benzoxazol-3-yl]-7,7-difluoro-3-oxo-2,5,6,7-tetrahydro-3H-pyrrolo[1,2-c]imidazol-6-yl}methanesulfonamide]"
20,101%,"CS(=O)(=O)N[C@@H]1CN2C(=O)N(c3noc4cc(Cl)c(F)c(-c5c(F)cccc5F)c34)C[C@@H]2C1(F)F [Example 107, N-{(6R,7aR)-2-[6-chloro-4-(2,6-difluorophenyl)-5-fluoro-1,2-benzoxazol-3-yl]-7,7-difluoro-3-oxohexahydro-1H-pyrrolo[1,2-c]imidazol-6-yl}methanesulfonamide]"
21,109%,"CS(=O)(=O)N[C@@H]1Cn2c(cn(-c3noc4cc(F)cc(-c5c(F)cc(F)cc5F)c34)c2=O)C1(F)F [Example 108, N-{(6R)-7,7-difluoro-2-[6-fluoro-4-(2,4,6-trifluorophenyl)-1,2-benzoxazol-3-yl]-3-oxo-2,5,6,7-tetrahydro-3H-pyrrolo[1,2-c]imidazol-6-yl}methanesulfonamide]"
22,90%,"COCc1cc(-c2c(F)cc(F)cc2F)c2c(-n3cc4n(c3=O)C[C@@H](NS(C)(=O)=O)C4(F)F)noc2c1 [Example 111, N-{(6R)-7,7-difluoro-2-[6-(methoxymethyl)-4-(2,4,6-trifluorophenyl)-1,2-benzoxazol-3-yl]-3-oxo-2,5,6,7-tetrahydro-3H-pyrrolo[1,2-c]imidazol-6-yl}methanesulfonamide]"
23,99%,"CCS(=O)(=O)N[C@@H]1Cn2c(cn(-c3noc4nc(C)cc(-c5c(F)cccc5F)c34)c2=O)C1(F)F [Example 112, N-{(6R)-2-[4-(2,6-difluorophenyl)-6-methyl[1,2]oxazolo[5,4-b]pyridin-3-yl]-7,7-difluoro-3-oxo-2,5,6,7-tetrahydro-3H-pyrrolo[1,2-c]imidazol-6-yl}ethanesulfonamide]"
